Source: patent publication US20090042818A1, “Liquiritigenin and Derivatives as Selective Estrogen Receptor Beta Agonists” (BIONOVO, INC., priority 2007, published 2009)
Entries after “also recorded” stand apart in the source; their conditions may differ. One block for each compound: values may come before it.

Tests used:
androgen receptor (AR) = molecular target: T1, androgen receptor (AR) (Homo sapiens, UniProt P10275); test: TAT3-luciferase transfection assay with androgen receptor in U2OS cells; conditions: 2.5 μM, 18 h
T1 sequence (P10275 1-920): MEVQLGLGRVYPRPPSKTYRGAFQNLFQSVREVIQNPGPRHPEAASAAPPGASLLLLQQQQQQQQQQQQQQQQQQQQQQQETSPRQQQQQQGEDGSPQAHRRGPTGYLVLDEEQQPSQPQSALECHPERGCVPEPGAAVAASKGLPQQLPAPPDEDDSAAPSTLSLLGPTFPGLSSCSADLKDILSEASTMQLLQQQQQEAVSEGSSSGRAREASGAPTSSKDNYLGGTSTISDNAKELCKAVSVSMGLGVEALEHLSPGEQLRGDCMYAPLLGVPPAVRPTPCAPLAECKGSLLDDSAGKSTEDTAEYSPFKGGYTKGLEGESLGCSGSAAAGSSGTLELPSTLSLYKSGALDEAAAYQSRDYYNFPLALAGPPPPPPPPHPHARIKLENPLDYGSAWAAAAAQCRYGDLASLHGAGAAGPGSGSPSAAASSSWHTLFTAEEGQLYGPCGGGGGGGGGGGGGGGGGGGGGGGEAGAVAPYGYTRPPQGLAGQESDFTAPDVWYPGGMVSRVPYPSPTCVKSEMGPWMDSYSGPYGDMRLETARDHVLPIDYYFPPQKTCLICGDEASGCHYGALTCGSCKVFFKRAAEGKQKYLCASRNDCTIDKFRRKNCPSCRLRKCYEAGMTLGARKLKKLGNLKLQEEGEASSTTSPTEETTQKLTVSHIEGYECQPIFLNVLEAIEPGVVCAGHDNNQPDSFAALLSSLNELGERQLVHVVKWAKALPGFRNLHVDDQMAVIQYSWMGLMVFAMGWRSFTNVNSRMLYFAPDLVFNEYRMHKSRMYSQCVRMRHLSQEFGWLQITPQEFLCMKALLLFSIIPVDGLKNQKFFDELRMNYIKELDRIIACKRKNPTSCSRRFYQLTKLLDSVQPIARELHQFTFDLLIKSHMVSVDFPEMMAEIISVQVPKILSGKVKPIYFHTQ

ERα [1] = molecular target: T2, ERα (Homo sapiens, UniProt P03372); test: Real-time PCR of native target gene mRNA in U2OS-ERα cells; type: cell-based; parameters: expressed in transfected cells; conditions: 1 μM
T2 sequence (P03372 1-595): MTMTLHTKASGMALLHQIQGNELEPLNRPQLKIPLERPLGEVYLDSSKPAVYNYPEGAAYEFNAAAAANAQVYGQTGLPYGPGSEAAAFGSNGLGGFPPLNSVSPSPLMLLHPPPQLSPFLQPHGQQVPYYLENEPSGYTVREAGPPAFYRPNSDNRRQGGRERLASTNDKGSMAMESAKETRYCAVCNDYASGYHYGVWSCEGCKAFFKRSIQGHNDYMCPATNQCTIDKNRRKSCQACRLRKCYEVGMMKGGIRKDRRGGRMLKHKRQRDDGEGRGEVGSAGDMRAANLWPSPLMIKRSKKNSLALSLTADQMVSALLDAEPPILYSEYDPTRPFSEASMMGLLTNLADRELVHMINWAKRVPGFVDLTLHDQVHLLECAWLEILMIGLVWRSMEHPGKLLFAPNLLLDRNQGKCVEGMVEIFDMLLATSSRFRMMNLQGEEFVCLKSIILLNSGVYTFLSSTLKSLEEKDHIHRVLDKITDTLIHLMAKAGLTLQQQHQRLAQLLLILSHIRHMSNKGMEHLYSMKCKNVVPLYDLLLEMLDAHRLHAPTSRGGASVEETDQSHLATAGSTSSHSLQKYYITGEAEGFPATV

ERα [2] = molecular target: T2, ERα; test: Native ER regulatory element (CECR6, NKG2E, NKD) tk-Luc transfection assay with ERα; type: cell-based; parameters: expressed in transfected cells; host or cells: U2OS
From the text: In addition to the traditional ERE, it is important to determine if liquiritigenin selectivity activates ERβ in elements derived from native ER target genes. ER regulatory elements from the cat eye syndrome chromosome region candidate 6 (CECR6), killer cell lectin-like receptor (NKG2E) and the naked cuticule homolog (NKD) genes that are activated by E2 Levy et al., Endocrinology doi:10.1210/en.2006-1632 (2007)) were used. CECR6-tk-Luc (A), NKG2E-tk-Luc (B), and NKD-tk-Luc (C) were transfected into U2OS cells with expression vectors for human ERα or ERβ. […] Liquiritigenin produced a dose-dependent activation of CECR6, NKG2E, and NKD with ERβ but not with ERα (FIGS. 4A, 4B, 4C, respectively). The cells were then treated for increasing times with liquiritigenin.

uterus = test: MCF-7 xenograft study in nude mice, uterine horn mass; type: in vivo; conditions: osmotic pump, 30 days, E2 0.4 mg, liquiritigenin 2 mg
Procedure: (§1) MCF-7 (250,000) cells were aggregated in suspension and then resuspended in 200 μL neutralized collagen, as previously described (Parmar et al., Endocrinology 143:4886-4896 (2002). The cells were then grafted under the kidney capsule of nude mice as described and illustrated in detail at: http://mammary.nih.gov/tools/mousework/Cunha001/index.html. Five mice per group were treated with a continuous infusion using osmotic pumps (Alzet, Cupertino, Calif.) containing vehicle, E2 (0.4 mg) or liquiritigenin (2 mg) that infused 2.5 μl/h for 1 month. After one month of treatment, the tumors and uteri were removed and analyzed. These animal studies were carried out with approval from the University of California, San Francisco Committee on Animal Research. The major concern with estrogens for menopausal symptoms is the proliferation of breast and endometrial cells causing an increased risk for breast and uterine cancer. To determine if liquiritigenin has a proliferative effect on breast cancer and endometrial cells, MCF-7 breast cancer cells were grafted under the kidney capsule of nude mice. Using a subcutaneous osmotic pump designed to deliver a steady dose of drug, the mice were treated for 30 days with vehicle, E2, or liquiritigenin.

[3] = test system: MCF-7 breast cancer cells; test: MCF-7 xenograft under kidney capsule of nude mice, tumor growth; type: in vivo; conditions: 30 days; for tumor growth of MCF-7 grafts: subcutaneous osmotic pump, E2 0.4 mg, liquiritigenin 2 mg
Procedure: as §1

[4] = molecular target: T3, progesterone receptor B (PR) (Homo sapiens, UniProt P06401); test: TAT3-luciferase transfection assay with progesterone receptor B in U2OS cells; conditions: 2.5 μM, 18 h
T3 sequence (P06401 1-933): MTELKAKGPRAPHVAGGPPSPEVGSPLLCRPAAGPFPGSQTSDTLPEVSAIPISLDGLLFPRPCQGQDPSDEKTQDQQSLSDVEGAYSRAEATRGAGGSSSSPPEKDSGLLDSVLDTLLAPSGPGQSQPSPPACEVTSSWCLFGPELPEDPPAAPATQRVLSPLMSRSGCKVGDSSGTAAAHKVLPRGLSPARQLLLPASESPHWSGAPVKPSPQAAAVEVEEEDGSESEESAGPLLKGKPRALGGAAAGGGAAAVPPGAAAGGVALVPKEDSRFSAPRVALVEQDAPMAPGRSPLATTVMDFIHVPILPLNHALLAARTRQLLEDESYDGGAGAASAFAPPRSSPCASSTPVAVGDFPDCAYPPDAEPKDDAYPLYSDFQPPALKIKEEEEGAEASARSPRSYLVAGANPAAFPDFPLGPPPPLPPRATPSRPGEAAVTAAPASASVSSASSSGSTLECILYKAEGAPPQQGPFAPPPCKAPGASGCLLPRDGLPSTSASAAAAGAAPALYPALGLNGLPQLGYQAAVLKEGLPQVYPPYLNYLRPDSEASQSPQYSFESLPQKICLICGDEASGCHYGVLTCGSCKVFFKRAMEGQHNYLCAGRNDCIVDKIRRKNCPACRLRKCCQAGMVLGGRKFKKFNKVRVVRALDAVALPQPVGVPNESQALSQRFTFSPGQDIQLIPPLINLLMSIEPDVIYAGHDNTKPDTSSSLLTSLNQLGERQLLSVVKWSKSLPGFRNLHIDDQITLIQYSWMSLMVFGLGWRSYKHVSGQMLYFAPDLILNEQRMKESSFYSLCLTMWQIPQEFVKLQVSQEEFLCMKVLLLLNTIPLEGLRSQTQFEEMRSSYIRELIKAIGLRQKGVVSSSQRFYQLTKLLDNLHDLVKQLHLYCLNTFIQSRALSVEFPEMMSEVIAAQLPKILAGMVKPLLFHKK

[5] = molecular target: T4, thyroid hormone receptor β1 (TR) (Homo sapiens, UniProt P10828); test: F2-tkLuc transfection assay with thyroid hormone receptor β1 in U2OS cells; conditions: 2.5 μM, 18 h
T4 sequence (P10828 1-461): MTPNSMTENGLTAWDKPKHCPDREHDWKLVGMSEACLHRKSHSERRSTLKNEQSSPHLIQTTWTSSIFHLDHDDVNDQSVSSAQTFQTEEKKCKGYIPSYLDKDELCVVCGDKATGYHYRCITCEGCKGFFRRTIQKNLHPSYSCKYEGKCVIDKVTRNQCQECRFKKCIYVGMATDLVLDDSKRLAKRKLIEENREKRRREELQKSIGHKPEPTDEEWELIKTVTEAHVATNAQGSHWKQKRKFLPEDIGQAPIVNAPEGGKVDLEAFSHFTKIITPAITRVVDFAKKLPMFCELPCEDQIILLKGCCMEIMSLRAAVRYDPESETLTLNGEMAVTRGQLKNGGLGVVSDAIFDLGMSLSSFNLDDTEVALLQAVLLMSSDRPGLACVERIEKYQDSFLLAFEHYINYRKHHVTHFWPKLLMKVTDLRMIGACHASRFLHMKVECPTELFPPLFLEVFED

[6] = molecular target: T5, glucocorticoid receptor (GR) (Homo sapiens, UniProt P04150); test: MMTV-luciferase transfection assay with glucocorticoid receptor in U2OS cells; conditions: 2.5 μM, 18 h
T5 sequence (P04150 1-777): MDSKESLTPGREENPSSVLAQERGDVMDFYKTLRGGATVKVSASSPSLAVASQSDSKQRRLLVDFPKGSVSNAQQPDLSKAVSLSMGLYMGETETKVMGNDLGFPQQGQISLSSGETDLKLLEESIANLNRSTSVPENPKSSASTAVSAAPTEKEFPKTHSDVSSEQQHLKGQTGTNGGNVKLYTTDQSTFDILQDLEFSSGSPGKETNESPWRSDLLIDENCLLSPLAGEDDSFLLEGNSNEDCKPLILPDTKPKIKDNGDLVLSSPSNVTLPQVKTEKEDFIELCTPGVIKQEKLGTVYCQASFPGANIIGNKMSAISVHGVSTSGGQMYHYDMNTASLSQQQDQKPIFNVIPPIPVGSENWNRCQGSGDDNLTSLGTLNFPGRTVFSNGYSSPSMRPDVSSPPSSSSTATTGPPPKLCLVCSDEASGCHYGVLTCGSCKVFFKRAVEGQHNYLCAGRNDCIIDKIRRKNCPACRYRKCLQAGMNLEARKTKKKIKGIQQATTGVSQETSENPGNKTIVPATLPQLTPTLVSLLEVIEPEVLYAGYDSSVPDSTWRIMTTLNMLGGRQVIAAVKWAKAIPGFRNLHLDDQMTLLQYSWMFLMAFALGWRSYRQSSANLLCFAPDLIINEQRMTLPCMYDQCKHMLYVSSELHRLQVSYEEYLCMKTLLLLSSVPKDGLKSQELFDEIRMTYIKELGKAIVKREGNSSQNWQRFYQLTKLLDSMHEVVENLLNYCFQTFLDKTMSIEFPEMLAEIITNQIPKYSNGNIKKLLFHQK

[7] = test system: mammary and uterine tissue; conditions: rat, in vivo; cited from earlier work
ERα and ERβ = conditions: cited from earlier work
[8] = U2OS cells, 18 h, increasing amounts

activation of androgen receptor (luciferase) (androgen receptor (AR)): did not activate
activation of endogenous genes in U2OS-ERα cells (ERα [1]): does not activate
activation of multiple ER regulatory elements (ERα [2]; 1 μM, ERα): does not activate
activation of CECR6-tk-Luc with ERα (ERα [2]; [8]): not with ERα
activation of NKD-tk-Luc with ERα (ERα [2]; [8]): not with ERα
uterine horn mass (uterus): did not increase uterine horn mass
uterine horn mass (uterus; listed as liquirtigenin): does not increase the size of the uterus
activation of progesterone receptor B (luciferase) [4]: did not activate
activation of thyroid hormone receptor (luciferase) [5]: did not activate
activation of glucocorticoid receptor (luciferase) [6]: did not activate
Structure (SMILES): O=C1C[C@@H](c2ccc(O)cc2)Oc2cc(O)ccc21 [liquiritigenin, (2S)-7-hydroxy-2-(4-hydroxyphenyl)-2,3-dihydro-4H-1-benzopyran-4-one]
weight of the tumors compared to the control mice ([3]; osmotic pump, 2 mg): no differences in the weight of the tumors
tumor growth of MCF-7 grafts [3]: essentially no tumor growth; also recorded: does not stimulate breast cancer tumor formation

Structure (SMILES): C=Cc1cc(O)cc2nc(-c3ccc(O)c(F)c3)oc12 [ERβ-041]
proliferative effects on mammary and uterine tissue [7]: does not elicit any proliferative effects

Structure (SMILES): O=c1c(-c2ccc(O)cc2)coc2cc(O)cc(O)c12 [genistein]
binding affinity to ERβ compared to ERα (ERα and ERβ): higher affinity; also recorded: binds better to ERβ than ERα

Structure (SMILES): C[C@]12CC[C@@H]3c4ccc(O)cc4CC[C@H]3[C@@H]1CC[C@@H]2O [E2, 17β-Estra-1,3,5(10)-triene-3,17-diol, reference compound]
tumor growth of MCF-7 grafts [3]: Large tumors developed; also recorded: causes the formation of large tumors
binding affinity to ERβ compared to ERα (ERα and ERβ): equal affinity
